Assay results as given in US9366682B2, “Use of stathmin as a biomarker of drug response to furazanobenzimidazoles” (BASILEA PHARMACEUTICA AG, priority 2011, dated 2016).

Key:
Assay type in all cases: cell-based, human
[1] = system: LXFE211 patient-derived lung cancer cells; test: Colony outgrowth assay, patient-derived lung cancer LXFE211; design: key to Response (sensitive/resistant): BAL27862-sensitive tumour cells were those that had IC70 values in the low nanomolar range; BAL27862-resistant tumour cells had IC70 values >600 nanomolar; conditions: for Response (sensitive/resistant): colony outgrowth, Lung LXFE211, by IC70 criteria
Protocol: (§1) Single cell suspensions of patient-derived tumour xenografts (maintained in nude mice) were prepared. For colony outgrowth assays, cells were plated in soft agar in 24-well plates according to the assay introduced by Hamburger & Salmon (Primary bioassay of human tumour stem cells, Science, 1977, 197:461-463). 2×10^4-6×10^4 cells in 0.2 mL medium containing 0.4% agar were plated out on a bottom layer of 0.75% agar. Test compounds were applied in 0.2 mL culture medium. Every 24-well plate contained untreated controls and samples in triplicates. Cultures were incubated at 37° C. and 7.5% CO2 for 5-28 days. 24 hours prior to analysis, vital colonies were stained with a solution of metabolizable tetrazolium salt (Alley M C et al, Life Sci. 1982, 31:3071-3078) and were counted with an automatic image analysis system (Omnicon 3600, Biosys GmbH).
(§2) Relative drug effects were expressed by the ratio of the mean number of colonies in the treated wells and the control wells. IC70-values were determined by plotting compound concentrations versus relative colony counts.

[2] = system: MEXF 989 patient-derived melanoma cells; test: Colony outgrowth assay, patient-derived melanoma MEXF 989; conditions: for Response (sensitive/resistant): colony outgrowth, melanoma MEXF 989 (resistant model 2), by IC70 criteria
Protocol: as §1, §2

[3] = system: MEXF 1341 patient-derived melanoma cells; test: Colony outgrowth assay, patient-derived melanoma MEXF 1341; design: key to Response (sensitive/resistant): BAL27862-sensitive tumour cells were those that had IC70 values in the low nanomolar range; BAL27862-resistant tumour cells had IC70 values >600 nanomolar; conditions: for Response (sensitive/resistant): colony outgrowth, melanoma MEXF 1341, by IC70 criteria
Protocol: as §1, §2

[4] = system: GXF 97 patient-derived gastric tumour cells; test: Colony outgrowth assay, patient-derived gastric tumour GXF 97; design: key to Response (sensitive/resistant): BAL27862-sensitive tumour cells were those that had IC70 values in the low nanomolar range; BAL27862-resistant tumour cells had IC70 values >600 nanomolar; conditions: for Response (sensitive/resistant): colony outgrowth, Gastric GXF 97, by IC70 criteria
Protocol: as §1, §2

[5] = system: MEXF 276 patient-derived melanoma cells; test: Colony outgrowth assay, patient-derived melanoma MEXF 276; design: key to Response (sensitive/resistant): BAL27862-sensitive tumour cells were those that had IC70 values in the low nanomolar range; BAL27862-resistant tumour cells had IC70 values >600 nanomolar; conditions: for Response (sensitive/resistant): colony outgrowth, melanoma MEXF 276 (resistant model 1), by IC70 criteria
Protocol: as §1, §2

[6] = system: GXF 251 patient-derived gastric tumour cells; test: Colony outgrowth assay, patient-derived gastric tumour GXF 251; design: key to Response (sensitive/resistant): BAL27862-sensitive tumour cells were those that had IC70 values in the low nanomolar range; BAL27862-resistant tumour cells had IC70 values >600 nanomolar; conditions: for Response (sensitive/resistant): colony outgrowth, Gastric GXF 251, by IC70 criteria
Protocol: as §1, §2

[7] = system: LXFE397 patient-derived lung cancer cells; test: Colony outgrowth assay, patient-derived lung cancer LXFE397
Protocol: as §1, §2

[8] = system: A549 NSCLC cells; test: Immunofluorescent staining of microtubules in cultured cells; conditions: for Microtubule phenotype, combination treatment: colchicine; for Microtubule phenotype: A549, 24 hours treatment, mitotic or G2/M arrested cells, anti-alpha-tubulin staining, BAL27862 50 nM, Compound B 80 nM, Compound C 20 nM
Protocol: (§3) A549 human non-small cell lung cancer (NSCLC, ATCC reference number CCL-185) cells, HeLa cervical cancer cells (ATCC reference number CCL-2) and SKBR3 breast carcinoma cells (ATCC reference number HTB-30) were seeded at densities of 50% on round microscope coverslips and cultured for 24 hours in RPMI-1640 containing 10% FCS (also referred to as FBS) at 37° C., 5% CO2. Compounds to be tested were dissolved in DMSO. The cell culture medium was replaced with medium containing the diluted compound(s) (paclitaxel, vinblastine, colchicine and nocodazole were purchased from Sigma-Aldrich) or vehicle. After treatment for the times indicated in the Brief Description of the Figures, coverslips were washed and cells were fixed in methanol/acetone (1:1) for 5 minutes at room temperature and subsequently incubated in blocking buffer (0.5% BSA and 0.1% TX-100 in PBS) for 30 minutes at room temperature. Specimens were then incubated with anti-alpha-tubulin antibody (Sigma, 1:2000) for 1 hour at room temperature in blocking buffer. After several washing steps cells were incubated with AlexaFluor-488 goat-anti-mouse IgG (Molecular Probes, 1:3000) for 1 hour at room temperature followed by several washing steps with blocking buffer. Specimens were then mounted with ProLong Gold antifade (Molecular Probes), sealed with nail polish and examined with a Leica immunofluorescence microscope. Images were captured with a cooled CCD-camera and processed by ImageJ software.

[9] = system: SKBR3 breast cancer cells; test: as above; conditions: SKBR3, 24 hours treatment with 50 nM, anti-alpha-tubulin staining
Protocol: as §3

[10] = system: HeLa cervical cancer cells; test: as above; conditions: 24 hours treatment with 50 nM, anti-alpha-tubulin staining
Protocol: as §3

Row | Structure (SMILES) | Response (sensitive/resistant) [1] | Response (sensitive/resistant) [3] | Response (sensitive/resistant) [4] | Response (sensitive/resistant) [6] | Microtubule phenotype [8] | further results
1 | N#CCCNc1nonc1-c1nc2ccccc2n1CC(=O)c1ccc(N)cc1 [BAL27862, 3-(4-{1-[2-(4-Amino-phenyl)-2-oxo-ethyl]-1H-benzoimidazol-2-yl}-furazan-3-ylamino)-propionitrile] | sensitive | sensitive | resistant (BAL27862-resistant tumour cells had IC70 values >600 nanomolar) | sensitive | multiple dot-like structures | IC70 ([1]; 70% growth inhibition versus controls, Lung LXFE211): 0.021 µM; IC70 ([2]; 70% growth inhibition versus controls, melanoma MEXF 989): >3.5 µM; IC70 ([3]; 70% growth inhibition versus controls, melanoma MEXF 1341): 0.025 µM; IC70 ([4]; 70% growth inhibition versus controls, Gastric GXF 97): >3.5 µM; IC70 ([5]; 70% growth inhibition versus controls, melanoma MEXF 276): >3.5 µM; IC70 ([6]; 70% growth inhibition versus controls, Gastric GXF 251): 0.485 µM; IC70 ([7]; 70% growth inhibition versus controls, Lung LXFE397): >3.5 µM; Response (sensitive/resistant) ([7]; colony outgrowth, Lung LXFE397, by IC70 criteria): resistant (BAL27862-resistant tumour cells had IC70 values >600 nanomolar); Microtubule phenotype, combination treatment ([8]; A549, 24 hours BAL27862 with the final 4 hours including vinblastine, paclitaxel or nocodazole): no impact on the observed microtubule phenotype; Microtubule phenotype ([8]; listed as compound A): highly reproducible and distinct microtubule phenotype; Microtubule phenotype, combination treatment ([8]; A549, 24 hours vinblastine, paclitaxel or nocodazole with the final 4 hours including BAL27862): disruption of the microtubule structures; Microtubule phenotype [9]: highly reproducible and distinct microtubule phenotype; Microtubule phenotype [10]: highly reproducible and distinct microtubule phenotype
2 | Nc1ccc(C(=O)Cn2c(-c3nonc3N)nc3ccccc32)cc1 [Compound B, 2-[2-(4-Amino-furazan-3-yl)-benzoimidazol-1-yl]-1-(4-amino-phenyl)-ethanone] | – | – | – | – | highly reproducible and distinct microtubule phenotype | –
3 | N#CCCNc1nonc1-c1nc2ccccc2n1CC(=O)c1ccc(N)nc1 [Compound C, 3-(4-{1-[2-(6-Amino-pyridin-3-yl)-2-oxo-ethyl]-1H-benzoimidazol-2-yl}-furazan-3-ylamino)-propionitrile] | – | – | – | – | highly reproducible and distinct microtubule phenotype | –
4 | COc1cc2c(c(OC)c1OC)-c1ccc(OC)c(=O)cc1[C@@H](NC(C)=O)CC2 [colchicine, reference compound] | – | – | – | – | mitotic microtubule phenotypes characteristic of these agents | –
5 | COC(=O)Nc1nc2ccc(C(=O)c3cccs3)cc2[nH]1 [nocodazole, reference compound] | – | – | – | – | mitotic microtubule phenotypes characteristic of these agents | –
6 | CC(=O)O[C@H]1C(=O)[C@@]2(C)[C@H]([C@H](OC(=O)c3ccccc3)[C@]3(O)C[C@H](OC(=O)[C@H](O)[C@@H](NC(=O)c4ccccc4)c4ccccc4)C(C)=C1C3(C)C)[C@]1(OC(C)=O)CO[C@@H]1C[C@@H]2O [paclitaxel, reference compound] | esistant | resistant (BAL27862-resistant tumour cells had IC70 values >600 nanomolar) | resistant (BAL27862-resistant tumour cells had IC70 values >600 nanomolar) | resistant (BAL27862-resistant tumour cells had IC70 values >600 nanomolar) | mitotic microtubule phenotypes characteristic of these agents | Response (sensitive/resistant) [2]: resistant (BAL27862-resistant tumour cells had IC70 values >600 nanomolar); Response (sensitive/resistant) [5]: resistant (BAL27862-resistant tumour cells had IC70 values >600 nanomolar)
7 | CC[C@]1(O)C[C@@H]2CN(CCc3c([nH]c4ccccc34)[C@@](C(=O)OC)(c3cc4c(cc3OC)N(C)[C@H]3[C@@](O)(C(=O)OC)[C@H](OC(C)=O)[C@]5(CC)C=CCN6CC[C@]43[C@@H]65)C2)C1 [vinblastine, reference compound] | sensitive | sensitive | sensitive | sensitive | mitotic microtubule phenotypes characteristic of these agents | Response (sensitive/resistant) [2]: resistant (BAL27862-resistant tumour cells had IC70 values >600 nanomolar); Response (sensitive/resistant) [5]: sensitive
